Assay results taken from US7807673B2, “2-pyrimidinyl pyrazolopyridine ErbB kinase inhibitors” (GlaxoSmithKline LLC, priority 2005, dated 2010).

Columns and labels:
[1] = system: Colo205 tumor cell lines; assay: Celltiter Glo growth inhibition assay (cellular Method B); type: cell-based; settings: Homo sapiens, COLO 205, 72 h, Table 3, Method B Celltiter Glo, 3 days
Method: (§1) Human breast tumor cells (BT474) were cultured in RPMI, (Invitrogen, 22400) containing 10% fetal bovine serum (FBS). Human head and neck tumor cells (HN5) were cultured in low glucose DMEM (Invitrogen, 12320) containing 10% FBS. Human colon tumor cells (Colo205) were cultured in DMEM (Invitrogen, 10564) containing 10% FBS. All cell lines were maintained at 37° C. in a humidified 5% CO2, 95% air incubator. Cells were harvested using trypsin/EDTA, counted using a haemocytometer, and plated in 30 microliters of the appropriate media described above, at the following densities, in a half area, black-walled, 96-well tissue culture plate (Corning 3882): BT474 3,000 cells/well, HN5 500 cells/well and Colo205 cells, 3,000 cells/well. The next day, compounds were diluted in DMEM containing 100 mg/ml gentamicin, from 10 mM stock solutions in DMSO. 30 microliters/well of these dilutions were added to the 30 microliters/well of media currently on the cell plates. Medium containing 0.6% DMSO was added to control wells. The final concentration of DMSO in all wells was 0.3%. Cells were incubated at 37° C., 5% CO2 for 3 days. Cell biomass was estimated using Celltiter Glo (Promega G7571). Briefly, plates were removed from the incubator and allowed to equilibrate to rt for 30 minutes. 60 microliters of Celltiter Glo reagent were added to each well of the treated cells and plates were shaken on an orbital plate shaker for 2 min. Plates were incubated without shaking for 30 more min and read in a luminometer with an integration time of 0.5 seconds per well. Percent inhibition of cell growth was calculated relative to vehicle treated control wells. Concentration of compound that inhibits 50% of vehicle control cell growth (IC50) was interpolated using nonlinear regression (Levenberg-Marquardt) and the equation, y=Vmax*(1−(x/(K+x)))+Y2, where “K” was equal to the IC50.

[2] = system: BT474 and HN5 tumor cell lines; assay: as above; type: cell-based; settings: Homo sapiens, BT-474, 72 h; Table 2, Method B Celltiter Glo, 3 days; class over BT474 and HN5;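 also: class counts the more potent of the two cell lines (BT474 or HN5)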
Method: as §1

[3] = target: T1, ErbB2 or EGFR; assay: ErbB enzyme substrate phosphorylation assay (HTRF), Method B (enzyme pre-incubated with compound 1 hour); type: biochemical; settings: Table 1, enzyme Method B: enzyme mix incubated with compound 1 hour at 20° C., reaction started with substrate mix; class over ErbB2 or EGFR
T1 construct: enzymes purified from a baculovirus expression system
Method: Compounds of the present invention were tested for EGFR, ErbB-2, and ErbB-4 protein tyrosine kinase inhibitory activity in substrate phosphorylation assays using enzymes purified from a baculovirus expression system. Reagent production was conducted essentially as described in Brignola, P. S., et al, (2002) J. Biol. Chem. 277(2): 1576-1585.
The method measures the ability of the isolated enzyme to catalyse the transfer of the gamma-phosphate from ATP onto the tyrosine residue of a biotinylated synthetic peptide referenced “Peptide C” in Brignola, P. S., et al, (2002) J. Biol. Chem. 277(2):1576-1585. The extent of tyrosine phosphorylation was measured using an anti-phosphotyrosine antibody, and quantified by homogenous time-resolved fluorescence (HTRF).
Reactions were performed in black 384-well polystyrene flat-bottom plates in a final volume of 20 μl. Assays were performed by adding 10 μl of each of the following solutions, substrate Mix and enzyme mix: The Substrate mix contained 100 mM 3-[N-morpholino]propanesulfonic acid (MOPS) (pH 7.5), 2 mM MnCl2, 20 μM ATP, 0.01% Tween-20, 0.1 mg/mL (BSA), 0.8 uM peptide substrate, and 1 mM dithiothreitol. The enzyme mix contained 100 mM MOPS (pH7.5); 0.01% Tween-20; 0.1 mg/mL BSA, and either 0.8 nM EGFR, 10 nM ErbB2, or 1 nM ErbB4
During the course of these studies, two separate methods have been used to measure the potency of compounds. In Method A, the substrate mix was added to the compound plates first, then the reaction was started by adding the enzyme mix. In Method B, the enzyme mix was added to the compound plates and the plates were incubated at 20° C. for 1 hour. The reactions were then started by adding the substrate mix.
After initiating the reaction with either method describe above, the reactions were allowed to proceed for 90 minutes at 20° C. The reactions were then terminated by the addition of 20 μl 100 mM EDTA to each well. 40 μl/well of HTRF detection mix were added to the assay plates. The final concentrations of the detection reagents were: 100 mM HEPES (pH7.5), 0.1 mg/mL BSA, 15 nM streptavidin-labeled allophycocyanin (PerkinElmer), and 1 nM europium-labeled anti-phosphotyrosine antibody (PerkinElmer). Assay plates were left unsealed and were counted in a Wallac Multilabel Counter 1420 (PerkinElmer).
Compounds under analysis were dissolved in Me2SO to 1.0 mM and serially diluted 1 to 3 with Me2SO through twelve dilutions. 1 μl of each concentration was transferred to the corresponding well of an assay plate. This creates a final compound concentration range from 0.00027 to 47.6 μM.
The data for dose responses were plotted as % Inhibition calculated with the data reduction formula 100*(1−(U1−C2)/(C1−C2)) versus concentration of compound where U is the unknown value, C1 is the average control value obtained for 4.76% DMSO, and C2 is the average control value obtained for 0.035 M EDTA. Data were fitted with a curve described by: y=((Vmax*x)/(K+x))+Y2 where Vmax is the upper asymptote, Y2 is the Y intercept, and K is the IC50. The results for each compound were recorded as pIC50s, calculated as follows: pIC50=−Log 10(K)

Compound | IC50 [1] [nM] | IC50 [2] [nM] | Activity (Method) [3]
CN(C)CCOc1cccc(Nc2nccc(-c3c(-c4cccc(NC(=O)Cc5cccs5)c4)nn4cccc(F)c34)n2)c1 [Example 31, N-[3-(3-{2-[(3-{[2-(dimethylamino)ethyl]oxy}phenyl)amino]-4-pyrimidinyl}-4-fluoropyrazolo[1,5-a]pyridin-2-yl)phenyl]-2-(2-thienyl)acetamide] | > 1000 | > 1000 | ++ (B) (at least one pIC50 measurement greater than 6 against either ErbB2 or EGFR but no measurement greater than pIC50 of 7)
O=C(Cc1cccs1)Nc1cccc(-c2nn3cccc(F)c3c2-c2ccnc(Nc3cccc(F)c3)n2)c1 [Example 32, N-[3-(4-fluoro-3-{2-[(3-fluorophenyl)amino]-4-pyrimidinyl}pyrazolo[1,5-a]pyridin-2-yl)phenyl]-2-(2-thienyl)acetamide] | > 1000 | > 1000 | + (B) (no pIC50 measurement greater than 6 against either ErbB2 or EGFR)
O=C(Cc1cccs1)Nc1cccc(-c2nn3cc(F)ccc3c2-c2ccnc(Nc3cccc(F)c3)n2)c1 [Example 33, N-[3-(6-fluoro-3-{2-[(3-fluorophenyl)amino]-4-pyrimidinyl}pyrazolo[1,5-a]pyridin-2-yl)phenyl]-2-(2-thienyl)acetamide] | > 1000 | > 1000 | ++ (B) (at least one pIC50 measurement greater than 6 against either ErbB2 or EGFR but no measurement greater than pIC50 of 7)
CN1CCc2ccc(Nc3nccc(-c4c(-c5cccc(NC(=O)Cc6cccs6)c5)nn5cc(F)ccc45)n3)cc2C1 [Example 35, N-[3-(6-fluoro-3-{2-[(2-methyl-1,2,3,4-tetrahydro-7-isoquinolinyl)amino]-4-pyrimidinyl}pyrazolo[1,5-a]pyridin-2-yl)phenyl]-2-(2-thienyl)acetamide] | > 1000 | 100 to 1000 | ++ (B) (at least one pIC50 measurement greater than 6 against either ErbB2 or EGFR but no measurement greater than pIC50 of 7)
CN(C)CCNCc1cccc(Nc2nccc(-c3c(-c4cccc(NC(=O)Cc5cccs5)c4)nn4ccccc34)n2)c1 [Example 40, N-{3-[3-(2-{[3-({[2-(dimethylamino)ethyl]amino}methyl)phenyl]-amino}-4-pyrimidinyl)pyrazolo[1,5-a]pyridin-2-yl]phenyl}-2-(2-thienyl)acetamide] | 100 to 1000 | 100 to 1000 | +++ (B) (at least one pIC50 measurement of greater than 7 against either ErbB2 or EGFR)
CS(=O)(=O)CCNCc1cccc(Nc2nccc(-c3c(-c4cccc(NC(=O)Cc5cccs5)c4)nn4ccccc34)n2)c1 [Example 41, N-{3-[3-(2-{[3-({[2-(Methylsulfonyl)ethyl]amino}methyl)phenyl]-amino}-4-pyrimidinyl)pyrazolo[1,5-a]pyridin-2-yl]phenyl}-2-(2-thienyl)acetamide] | 100 to 1000 | 100 to 1000 | +++ (B) (at least one pIC50 measurement of greater than 7 against either ErbB2 or EGFR)
NCc1cccc(Nc2nccc(-c3c(-c4cccc(NC(=O)Cc5cccs5)c4)nn4ccccc34)n2)c1 [Example 42, N-{3-[3-(2-{[3-(Aminomethyl)phenyl]amino}-4-pyrimidinyl)pyrazolo[1,5-a]pyridin-2-yl]phenyl}-2-(2-thienyl)acetamide] | > 1000 | 100 to 1000 | +++ (B) (at least one pIC50 measurement of greater than 7 against either ErbB2 or EGFR)
CN1CCC(N(C)CCOc2cc(Nc3nccc(-c4c(-c5cccc(NC(=O)Cc6cccs6)c5)nn5ccccc45)n3)ccc2Cl)C1 (stereo not drawn) [Example 46, N-{3-[3-(2-{[4-Chloro-3-({2-[methyl(1-methyl-3-pyrrolidinyl)amino]-ethyl}oxy)phenyl]amino}-4-pyrimidinyl)pyrazolo[1,5-a]pyridin-2-yl]phenyl}-2-(2-thienyl)acetamide] | > 1000 | > 1000 | +++ (B) (at least one pIC50 measurement of greater than 7 against either ErbB2 or EGFR)

Second part, led by results:

IC50 [1] [nM] | IC50 [2] [nM] | Compound | Activity (Method) [3]
100 to 1000 | 100 to 1000 | CN(C)CCOc1cccc(Nc2nccc(-c3c(-c4cccc(NC(=O)Cc5cccs5)c4)nn4cc(F)ccc34)n2)c1 [Example 34, N-[3-(3-{2-[(3-{[2-(dimethylamino)ethyl]oxy}phenyl)amino]-4-pyrimidinyl}-6-fluoropyrazolo[1,5-a]pyridin-2-yl)phenyl]-2-(2-thienyl)acetamide] | +++ (B) (at least one pIC50 measurement of greater than 7 against either ErbB2 or EGFR)
100 to 1000 | 100 to 1000 | CN(C)Cc1cccc(Nc2nccc(-c3c(-c4ccc(F)c(NC(=O)Cc5cccs5)c4)nn4ccccc34)n2)c1 [Example 36, N-(5-{3-[2-({3-[(dimethylamino)methyl]phenyl}amino)-4-pyrimidinyl]pyrazolo[1,5-a]pyridin-2-yl}-2-fluorophenyl)-2-(2-thienyl)acetamide] | ++ (B) (at least one pIC50 measurement greater than 6 against either ErbB2 or EGFR but no measurement greater than pIC50 of 7)
100 to 1000 | < 100 | CN(C)C1Cc2ccc(Nc3nccc(-c4c(-c5ccc(F)c(NC(=O)Cc6cccs6)c5)nn5ccccc45)n3)cc2C1 (stereo not drawn) [Example 37, N-{5-[3-(2-{[2-(dimethylamino)-2,3-dihydro-1H-inden-5-yl]amino}-4-pyrimidinyl)pyrazolo[1,5-a]pyridin-2-yl]-2-fluorophenyl}-2-(2-thienyl)acetamide] | +++ (B) (at least one pIC50 measurement of greater than 7 against either ErbB2 or EGFR)
100 to 1000 | 100 to 1000 | CN(C)CCOc1cccc(Nc2nccc(-c3c(-c4ccc(F)c(NC(=O)Cc5cccs5)c4)nn4ccccc34)n2)c1 [Example 38, N-[5-(3-{2-[(3-{[2-(dimethylamino)ethyl]oxy}phenyl)amino]-4-pyrimidinyl}pyrazolo[1,5-a]pyridin-2-yl)-2-fluorophenyl]-2-(2-thienyl)acetamide] | ++ (B) (at least one pIC50 measurement greater than 6 against either ErbB2 or EGFR but no measurement greater than pIC50 of 7)
< 100 | 100 to 1000 | COc1ccc(Nc2nccc(-c3c(-c4cccc(NC(=O)Cc5cccs5)c4)nn4ccccc34)n2)cc1N1CCN(CCS(C)(=O)=O)CC1 [Example 47, N-[3-(3-{2-[(4-(Methyloxy)-3-{4-[2-(methylsulfonyl)ethyl]-1-piperazinyl}phenyl)amino]-4-pyrimidinyl}pyrazolo[1,5-a]pyridin-2-yl)phenyl]-2-(2-thienyl)acetamide] | +++ (B) (at least one pIC50 measurement of greater than 7 against either ErbB2 or EGFR)
